What was measured:
mice = format: in vivo; conditions: intravenous
Procedure: A method described by S. Irwin (Psychopharmacologica, 1968, 13, 222) was used to detect general physiological, behavioural and toxic effects of a series of compounds. The tested compounds were administered intra veneously to mice (3 animals per compound and dose) and the behavioural modification and neurotoxicity symptoms such as mortality, sedation, excitation, aggressiveness, straub, writhes, convulsions, tremor, exophtalamos, salivation, lacrimation, piloerection, defecation, fear, traction, reactivity to touch, loss of righting reflex, sleep, motor incoordination, muscle tone, stereotypies, catalepsy, grasping, ptosis, difficulty in respiration, corneal reflex, analgesia and gait were recorded compared to a control group, Furthermore, rectal temperature and pupil diameter were recorded.

Wistar rats = assay: Neointima formation after balloon catheter injury of the carotid artery in rats; format: in vivo, rat; conditions: for elasticity of the vessel walls (microscopic investigation): compared to the control group; for Neointima formation / Reduction (%) of neointima formation: rat carotid, 14 days post-operatively, 1 mg/kg/hr; for Neointima formation: subcutaneous osmotic minipumps; for Reduction (%) of neointima formation: versus saline control, osmotic minipumps
Procedure: The effects on neointima formation was assessed after inducing vessel injury in rats with a balloon catheter. Neointima formation is an important part in the process of restenosis. Adult mate Wistar rats (250-260 g) were housed under standard conditions and were fed with commercial rat chow and water ad libitum. During the experiment D-myo-inositol-1,2,6-trisphosphate (IP3) was administered via subcutaneously operated osmotic minipumps with a dose level of 1 mg/kg/hr. A control group received saline solution by osmotic minipumps. The animals were anaesthetised with an intraperitoneal injection of ketamine, 100 mg/kg, (MTC Pharmaceuticals, Cambridge, Ontario, Canada) and xylazine, 10 mg/kg (Bayer Inc., Etobicoke, Ontario, Canada). Using a dissecting microscope, the left carotid artery was exposed on the ventral side of the neck via a midline incision. The bifurcation of the carotid artery was located and two ligatures were placed around the external carotid artery, which was then tied off with the distal ligature. After temporarily occluding the internal carotid artery with a vascular clamp, a small incision was made between the two ligatures placed around the external carotid artery to introduce the endothelial denudation device, an inflated […] Fogarty embolectomy catheter (Baxter Healthcare, Buckinghamshire, UK). Each animal was de-endothelialised by three passages of the catheter and the carotid artery was tied off proximal to the incision hole. The clamp was removed and the pulse of the carotid artery was rechecked. The skin incision was closed with a single suture. 14 days post-operatively, the animals were sedated. An abdominal incision was made to access the abdominal aorta for insertion of a cannula connected to a perfusion apparatus. The animals where killed by an overdose of anaestetic and then perfused with heparinised phosphate buffered saline (pH 7.4) at a rate of 100 ml/min per kg body weight and a pressure of 120 mm Hg. After replacement of saline, 4% paraformaldehyde in isotonic saline was introduced at the same flow rate. After fixation in situ, the carotids were dissected free. Three mid-carotid segments, approximately 10 mm long were rinsed and placed in 4% parafomaldehyde for another 16 hours before embedding and freezing in Tissue-Tek OCT media (Miles Inc., Elkhart, Ind., USA). Frozen sections were stained with Movat's pentachrome and immunohistochemistry was performed using antibodies in order to examine the process of restenosis by measurement of the neointima formation.
In a procedure similar to the one described in Example 3, D-3,4,5-tri-O-(phenylcarbamoyl)myo-inositol-1,2,6-trisphosphate (PP 11-201) was added with the result shown below: […]

[1] = system: Human pulmonary artery smooth muscle cells (HPASMCs); assay: FGF2-stimulated proliferation of smooth muscle cells (3H-thymidine incorporation); format: cell-based; conditions: 1 nM FGF2, 24 hours
Procedure: Vascular smooth muscle cell proliferation contributes to restenosis after coronary angioplasty. Human pulmonary artery smooth muscle cells (HPASMCs) were maintained in Medium 231 supplemented with Smooth muscle Growth Supplement. The cells, medium and supplement were obtained from Caascade Biologics Inc., Portland, Oreg., USA.
The cells were grown as monolayer culture in 100-mm diameter plastic tissue culture dishes (Nunc, Roskilde, Denmark) with 10 ml medium in 37° C. in a humidified atmosphere of 95% air and 5% CO2 and subcultured at 4- to 6-day intervals. For measurement of cell growth, cells were seeded at density 5.0*10^3/well in 96 well dishes in DMEM+0.2% FBS for 3 days. Culture medium was then removed and cells were seeded in DMEM+0.2% FBS with 1 nM of basic fibroblast growth factor (FGF2). The addition of FGF2 induces cell proliferation of the HPASMCs. The FGF2 used was a recombinant human substance from Boehringer Mannheim Biochemica, Espoo, Finland. Various concentrations of D-myo-inositol-1,2,6-trisphosphate (IP3) were added and the number of parallel wells in each treatment was four. The proliferation of cells was analysed after 24 hours of incubation by labelling each well with 0.2 μCi of ^3H-thymidine for two hours. After that the cells were trypsinated and harvested on a filter. A Melt-on scintillator (Meltilex™ A; Wallac, Turku, Finland) was allowed to melt on the filter. The radioactivity of the sheets was counted on a liquid scintillator counter (1450 Microbeta Wallac, Turku, Finland).
Stimulation of proliferation was inhibited by the addition of IP3 with the following result:
In a procedure similar to the one described in Example 1, D-3,4,5-tri-O-(phenylcarbamoyl) myo-inositol-1,2,6-trisphosphate (PP 11-201) was added with the result shown below: […]

1,2-O-ethylene-β-D-fructopyranoside-2,3,4-trisphosphate
Dose where effects are observed (mice): >512 mg/kg

O=P(O)(O)OC1CN(CCc2ccccc2)CC(OP(=O)(O)O)C1OP(=O)(O)O (centres unmarked) [1,5-dideoxy-1,5-imino-N-(2-phenylethyl)arabinitol-2,3,4-trisphosphate]
Dose where effects are observed (mice): >512 mg/kg

CCCCC(=O)OC1C(OC(=O)CCCC)C(OP(=O)(O)O)C(OP(=O)(O)O)C(OP(=O)(O)O)C1OC(=O)CCCC [D-3,4,5-tri-O-pentanoyl-myo-inositol-1,2,6-trisphosphate]
Dose where effects are observed (mice): 128 mg/kg

CCC(=O)OC1C(OC(=O)CC)C(OP(=O)(O)O)C(OP(=O)(O)O)C(OP(=O)(O)O)C1OC(=O)CC [D-3,4,5-tri-O-propanoyl-myo-inositol-1,2,6-trisphosphate]
Dose where effects are observed (mice): 256 mg/kg

O=C(O)CP(=O)(O)O[C@@H]1[C@H](OP(=O)(O)CC(=O)O)[C@H](O)[C@@H](O)[C@H](O)[C@H]1OP(=O)(O)CC(=O)O [D-myo-inositol-1,2,6-tris(carboxymetylphosphonate)]
Dose where effects are observed (mice): >512 mg/kg

O=P(O)(O)O[C@@H]1[C@H](OP(=O)(O)O)[C@H](O)[C@@H](O)[C@H](O)[C@H]1OP(=O)(O)O [IP3, D-myo-inositol-1,2,6-trisphosphate]
Dose where effects are observed (mice): >512 mg/kg | elasticity of the vessel walls (microscopic investigation) (Wistar rats): improved | Neointima formation (Wistar rats): 0.48 mm^2 | Reduction (%) of neointima formation (Wistar rats): 57% | inhibition (%) of FGF2-stimulated proliferation ([1]; 1 μM): 61% | inhibition (%) of FGF2-stimulated proliferation ([1]; 10 μM): 44% | inhibition (%) of FGF2-stimulated proliferation ([1]; 100 μM): 68%

O=C(Nc1ccccc1)O[C@@H]1[C@@H](OC(=O)Nc2ccccc2)[C@@H](OP(=O)(O)O)[C@@H](OP(=O)(O)O)[C@H](OP(=O)(O)O)[C@H]1OC(=O)Nc1ccccc1 [PP 11-201, D-3,4,5-tri-O-(phenylcarbamoyl)myo-inositol-1,2,6-trisphosphate]
elasticity of the vessel walls (microscopic investigation) (Wistar rats): improved | Neointima formation (Wistar rats): 0.43 mm^2 | Reduction (%) of neointima formation (Wistar rats): 62% | inhibition (%) of FGF2-stimulated proliferation ([1]; 0.1 μM): 49% | inhibition (%) of FGF2-stimulated proliferation ([1]; 1 μM): 61% | inhibition (%) of FGF2-stimulated proliferation ([1]; 10 μM): 70%

CCCCOC[C@H]1O[C@H](OC)[C@H](OP(=O)(O)O)[C@@H](OP(=O)(O)O)[C@@H]1OP(=O)(O)O [methyl-6-O-butyl-α-D-glycopyranoside-2,3,4-trisphosphate]
Dose where effects are observed (mice): 256 mg/kg

methyl-6-O-butyl-α-D-mannopyranoside-2,3,4-trisphosphate
Dose where effects are observed (mice): >512 mg/kg
